Here are results for 1 compound from paper PMC11851430, “Workflow for E3 Ligase Ligand Validation for PROTAC Development” (ACS Chemical Biology, 2025).

The target in one assay is VHL (Homo sapiens, UniProt P40337). Nature of the assay: cell-based. Also noted: full-length, NanoLuc fusion (Promega N2741); species or system HEK293T; NanoBRET VHL tracer displacement in permeabilized cells, NanoLuc-VHL fusion. The settings on record: permeabilized cells; read-out: VHL permeabilized (IC50±sd)/µM.
Assay [1] relates to kinase protein levels in Jurkat cells. Nature of the assay: TMT-labeled quantitative proteomics. Format: cell-based, human. As to conditions: for log2FC (compound/DMSO): Jurkat, 1 µM, set1.2. Here is the method: cultured in RPMI (Thermo: 11875093) supplemented as mentioned above. Cells were seeded in 6 well plates (Greiner: 657160) at a cell density of 1·10 6 cells/well and left at 37 °C and 5% […]
50 µl of SDS Lysis Buffer (2% SDS, 50 mM TRIS pH 8.5, 10 mM TCEP, 40 mM CAA) was added to each sample. Cells were transferred into low binding reaction tubes (Eppendorf:
0030108116) and samples were boiled for 15 minutes at 95 °C and sonicated for 2 minutes.
Methanol/Chloroform Precipitation. 200 µl of methanol and 50 µl of chloroform were added to each sample reaction tube and mixed via vortex. 150 µl of milliQ-H2O were added and samples were vortexed further. Samples were centrifuged for 5 minutes at 15000 g and the aqueous layer above the interphase was removed. 150 µl of methanol was added, samples were vortexed and centrifuged for 10 minutes at 15000 g to precipitate the pellet. The aforementioned wash procedure was repeated twice before transferring the pellet to a new low bind reaction tube in which it was allowed to dry for 5 minutes.
Dissolving the Protein Pellet and Protein Quantification. 50 µl of digestion buffer (8 M Urea, 50 mM TRIS pH 8) was added to each sample before vortexing and shaking at 750 rpm at room temperature for 10 minutes to solubilize the pellet. Protein quantification via PierceTM BCA Protein Assay Kit (Thermo: 23225) was carried out according to manufacturer’s protocol.
Protein Digestion. Samples were diluted 1:2 with 50 mM TRIS pH 8.5 to reach a final concentration of 4 M Urea. Lys-C (Promega: VA1170) was added at a 1:100 enzyme/substrate ratio. Samples were agitated at 550 rpm and 37 °C for 3 h. Samples were further diluted with 50 mM TRIS pH 8.5 to a final concentration of 1 M Urea and Trypsin (Promega: V5280) was added at a 1:100 enzyme/substrate ratio. Samples were agitated overnight at 550 rpm and 37 °C. The digestion was stopped the following day via addition of TFA to a final concentration […]
Solid Phase Extraction via C18 Cartridges. Sep-Pak C18 Cartridges (Waters: WAT054955) were used for solid phase extraction of digested peptides. For preconditioning of C18 cartridges, 1 mL of methanol was added to each column followed by 1 mL of solution B (0.1% formic acid, 80% acetonitrile) and 1 mL of solution A (0.1% formic acid, ddH2O) twice. Samples […]
were loaded to their respective columns and once samples had passed, columns were washed twice with solution A to remove unwanted components from the loading step. Elution of samples was carried out via introduction of 40% and 60% acetonitrile steps. Samples were dried and snap frozen in liquid nitrogen.
TMT-Labeling. Desalted peptides were dried and resuspended in TMT-labeling buffer (200 mM EPPS pH 8.2, 20% acetonitrile). 10 μg of peptides per condition were subjected to TMT labeling with 1:2.5 peptide TMT ratio (w/w) for 1 h at room temperature. The labeling reaction was quenched by addition of hydroxylamine to a final concentration of 0.5% and incubation at room temperature for 15 minutes. Successful TMT labeling was verified by mixing equimolar ratios of peptides and subjecting the mix to single shot LC-MS/MS analysis. For high pH reversed phase fractionation on a Dionex analytical HPLC, 50 µg of pooled and purified TMT labelled samples were resuspended in 10 mM ammonium-bicarbonate (ABC), 5% acetonitrile, […]
particle size; Phenomenex) using a multistep gradient from 100% solvent A (5% acetonitrile, 10 mM ABC in water) to 60% solvent B (90% acetonitrile, 10 mM ABC in water) over 70 minutes. Eluting peptides were collected every 45 seconds into a total of 96 fractions, which were cross-concatenated into 24 fractions and dried in a vacuum concentrator and resuspended in 3% acetonitrile with 0.1% TFA for LC-MS analysis.
Mass spectrometry data acquisition. Tryptic peptides were analyzed on an Orbitrap Lumos coupled to an easy nLC 1200 (ThermoFisher Scientific) using a 35 cm long, 75 µm ID fused-

A further assay has as its system Jurkat cells. Description: CellTiterGlo cell viability assay. In kind it is cell-based, human. As to conditions: Homo sapiens, 24 h, mean of triplicates, ^b/^c values estimated, read-out: IC50±sd/μM (cell viability). The gist of the method:
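Jurkat cells treated with compound titrations; viability read by CellTiter-Glo 2.0 luminescence after 10 min at room temperature, fitted to a four-parameter curve. Proteomics samples lysed in 2% SDS, 50 mM Tris pH 8.5, TCEP and CAA, sonicated, then analysed by label-free quantitation.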

A further assay addresses full-length AAK1 (Homo sapiens, UniProt Q2M2I8). Description: NanoBRET target engagement assay, intact and permeabilized cells. The settings on record: NanoBRET, mean of duplicates. (In general: Bioluminescence resonance energy transfer reports proximity on the nanometre scale.)
The target in a further assay is T1, AURKA (Homo sapiens, UniProt O14965).
T1 sequence (O14965 1-403): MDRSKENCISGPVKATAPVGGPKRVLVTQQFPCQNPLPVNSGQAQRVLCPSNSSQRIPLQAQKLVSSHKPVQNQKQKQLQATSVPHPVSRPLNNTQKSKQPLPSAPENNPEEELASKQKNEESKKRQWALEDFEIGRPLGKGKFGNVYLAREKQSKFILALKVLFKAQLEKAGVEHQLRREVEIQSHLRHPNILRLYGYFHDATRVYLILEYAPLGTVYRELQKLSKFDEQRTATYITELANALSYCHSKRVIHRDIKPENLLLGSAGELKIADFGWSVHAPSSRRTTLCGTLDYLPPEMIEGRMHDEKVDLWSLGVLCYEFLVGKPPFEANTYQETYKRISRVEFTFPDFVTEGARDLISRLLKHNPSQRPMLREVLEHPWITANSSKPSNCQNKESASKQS
The assay is described as above. The settings on record: mean of duplicates, ^a values estimated by extrapolation.

Chain of full-length AAK1 (Q2M2I8 whole entry): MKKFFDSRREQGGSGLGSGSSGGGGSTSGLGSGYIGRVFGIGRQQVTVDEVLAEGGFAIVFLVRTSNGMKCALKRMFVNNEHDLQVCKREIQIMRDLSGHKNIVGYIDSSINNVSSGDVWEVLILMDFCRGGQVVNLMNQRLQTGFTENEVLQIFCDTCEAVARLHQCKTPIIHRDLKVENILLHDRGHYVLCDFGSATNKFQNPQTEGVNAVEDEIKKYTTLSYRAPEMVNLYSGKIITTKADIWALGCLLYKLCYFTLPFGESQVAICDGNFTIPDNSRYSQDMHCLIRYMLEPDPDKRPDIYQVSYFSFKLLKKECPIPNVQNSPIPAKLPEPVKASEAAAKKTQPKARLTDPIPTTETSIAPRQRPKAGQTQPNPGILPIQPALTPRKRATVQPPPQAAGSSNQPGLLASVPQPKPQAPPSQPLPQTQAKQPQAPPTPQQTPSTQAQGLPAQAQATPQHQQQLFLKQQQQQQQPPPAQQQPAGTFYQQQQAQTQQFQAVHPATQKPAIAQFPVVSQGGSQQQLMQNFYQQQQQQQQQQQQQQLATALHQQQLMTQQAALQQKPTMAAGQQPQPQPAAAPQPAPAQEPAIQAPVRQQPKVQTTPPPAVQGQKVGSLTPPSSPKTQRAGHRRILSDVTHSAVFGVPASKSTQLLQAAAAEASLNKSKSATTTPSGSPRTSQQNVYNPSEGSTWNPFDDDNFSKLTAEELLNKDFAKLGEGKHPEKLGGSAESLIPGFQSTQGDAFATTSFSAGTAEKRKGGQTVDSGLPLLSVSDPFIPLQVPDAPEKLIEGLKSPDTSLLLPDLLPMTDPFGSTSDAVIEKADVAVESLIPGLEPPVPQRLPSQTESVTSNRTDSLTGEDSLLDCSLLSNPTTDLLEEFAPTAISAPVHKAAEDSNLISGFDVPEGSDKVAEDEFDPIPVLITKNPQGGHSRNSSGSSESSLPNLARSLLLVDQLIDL
Chain of VHL (P40337 whole entry, the tested form may be a part): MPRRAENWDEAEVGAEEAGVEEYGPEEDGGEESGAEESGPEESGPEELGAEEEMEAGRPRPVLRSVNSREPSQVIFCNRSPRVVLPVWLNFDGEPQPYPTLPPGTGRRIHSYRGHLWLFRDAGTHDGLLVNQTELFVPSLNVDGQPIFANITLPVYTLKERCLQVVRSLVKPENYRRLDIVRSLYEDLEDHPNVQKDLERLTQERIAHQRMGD
Procedure for AURKA: Compounds were pipetted at various concentrations using an Echo acoustic dispenser (Labcyte), immediately followed by Tracer K10 (Promega, Tracer DB ID: T000008) for AAK1 and Aurora A and VHL Tracer (Promega, Tracer DB ID: T000019) for VHL, at an optimum KD concentration chosen from TracerDB ( tracerdb.org), respectively.
To measure the BRET signal, the NanoBRET® NanoGlo Substrate (Promega:
N1573) was added as per the manufacturer’s protocol, and filtered luminescence was measured on a PHERAstar plate reader (BMG Labtech) equipped with a luminescence filter pair (450 nm BP filter (donor) and 610 nm LP filter (acceptor)). For NanoBRET® measurement in permeabilized cells, 25 nL of digitonin (0.05 μg/μL) was pipetted into each well using an
After incubation, the BRET signals were measured by a PHERAstar plate reader (BMG Labtech) following the same procedure as intact NanoBRET® measurement. Competitive displacement data were then normalized to controls and were plotted using GraphPad Prism 9 software employing a normalized 3-parameter curve fit with the following equation:

For `Cc1ncsc1-c1ccc(CNC(=O)[C@@H]2C[C@@H](O)CN2C(=O)[C@@H](NC(=O)CCOCCOCCOCCOCCN2CCN(c3ccc(Nc4ncc(Cl)c(Nc5ccccc5C(N)=O)n4)cc3)CC2)C(C)(C)C)cc1` [6-b], the IC50 is 1.41 ± 0.083 µM on VHL; 3.1 ± 0.8 µM with Jurkat cells; 0.13 ± 0.003 µM on full-length AAK1 (AAK1 intact (IC50±sd)/μM, intact cells, ^a values estimated by extrapolation); 0.055 ± 0.002 µM on full-length AAK1 (AAK1 permeabilized (IC50±sd)/μM, permeabilized cells); 0.416 ± 0.031 µM on AURKA (AURKA intact (IC50±sd)/μM, intact cells); 0.254 ± 0.08 µM at AURKA (AURKA permeabilized (IC50±sd)/μM, permeabilized cells). The kinase degradation entry in assay [1] (Jurkat cells, 1 μM, 6 h) was “more kinases were degraded”. Moreover, in assay [1] (Jurkat cells, 1 μM, 6 h, cutoff log2(fold change) ≥ 0.60), the “AURKA degradation in proteomic experiments” value is listed as “degradation levels close to the set cutoff”. Also, the “log2FC (compound/DMSO)” value in assay [1] (protein NUDT4) was 0.1389; in assay [1] (protein PIGBOS1), -0.2513; in assay [1] (protein TRAV8-2), -0.01025; in assay [1] (protein TRBV12-3;TRBV12-4) it was 0.04941.
